Data reported in patent US20120264949A1, “Method of Labeling Dopamine D2 Receptor Using Radiosynthesized Ligand of Iodine-123-Epidepride” (ATOMIC ENERGY COUNCIL-INSTITUTE OF NUCLEAR ENERGY RESEARCH, priority 2011, published 2012).

How the values were obtained:
dopamine D2 receptors [1] = biological target: T1, dopamine D2 receptors (Mus musculus, UniProt P61168); assay: microSPECT/microCT imaging of mouse brain; assay type: in vivo; conditions: 5 mCi injected, striatum, thalamus and midbrain
T1 construct: from tissue; host or cells: mouse brain in vivo (striatum, thalamus, midbrain)
Description: FIG. 9 is a view showing a combined image of a mouse brain obtained through microSPECT and microCT. As shown in the figure, a combined image of a mouse brain is obtained through microSPECT and microCT, where 5 mCi of I-123-Epidepride is injected into the mouse brain.

[2] = Stability after standing 24 hours, radiochemistry purity measured; assay type: physicochemical; conditions: stayed still for 24 hours
Description: FIG. 8A and FIG. 8B are views showing stability at 0 hour and 24 hour. As shown in the figures, after the I-123-Epidepride is stayed still for 24 hours, its radiochemistry purity is measured. As shown by the liquid peaks, [32], the stability is higher than 90%.

[3] = Lipophilicity, octanol/PBS partition with gamma-counter; assay type: physicochemical
Description: For analyzing lipophilicity of the I-123-Epidepride, a solution of phosphate buffer saline (PBS) is used with lipophilic octanol. After 50 μl of I-123-Epidepride, 0.5 ml of PBS and 0.5 ml of octanol are mixed, a diluted octanol solution is obtained with an aqueous solution which has an equal weight as the octanol solution and then is processed with a gamma-counter. Therein, the lipophilicity of the I-123-Epidepride is expressed as a value of log P and log P is obtained by the following formula: Log P=Log {(Decay corrected activity)organic layer×10/(Decay corrected activity)aqueous layer}.
FIG. 6 and FIG. 7 are views showing lipophilicity and labeling results. […] Besides, the labeling method according to the present disclosure obtains 20 mCi each time for three times with an average radiochemistry purity of 99.55±0.8% and an average yield of 74.83±2.4% (shown in FIG. 7).

dopamine D2 receptors [4] = biological target: dopamine D2 receptors (Homo sapiens, UniProt P14416); conditions: imaging agent for dopamine D2 receptors; cited from earlier work
Chain of dopamine D2 receptors (Homo sapiens, UniProt P14416) (P14416 whole entry): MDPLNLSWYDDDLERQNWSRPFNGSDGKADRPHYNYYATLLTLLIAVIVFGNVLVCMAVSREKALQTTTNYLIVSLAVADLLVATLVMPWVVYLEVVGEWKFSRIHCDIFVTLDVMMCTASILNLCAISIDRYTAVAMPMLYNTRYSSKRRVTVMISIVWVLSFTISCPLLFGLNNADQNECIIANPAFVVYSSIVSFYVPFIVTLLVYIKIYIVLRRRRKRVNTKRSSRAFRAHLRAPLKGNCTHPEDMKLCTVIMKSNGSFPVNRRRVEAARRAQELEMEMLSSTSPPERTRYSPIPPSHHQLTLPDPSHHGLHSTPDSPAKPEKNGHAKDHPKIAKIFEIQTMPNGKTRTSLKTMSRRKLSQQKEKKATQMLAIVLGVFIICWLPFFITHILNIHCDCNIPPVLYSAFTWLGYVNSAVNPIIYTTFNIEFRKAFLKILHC

T1 sequence (P61168 whole entry): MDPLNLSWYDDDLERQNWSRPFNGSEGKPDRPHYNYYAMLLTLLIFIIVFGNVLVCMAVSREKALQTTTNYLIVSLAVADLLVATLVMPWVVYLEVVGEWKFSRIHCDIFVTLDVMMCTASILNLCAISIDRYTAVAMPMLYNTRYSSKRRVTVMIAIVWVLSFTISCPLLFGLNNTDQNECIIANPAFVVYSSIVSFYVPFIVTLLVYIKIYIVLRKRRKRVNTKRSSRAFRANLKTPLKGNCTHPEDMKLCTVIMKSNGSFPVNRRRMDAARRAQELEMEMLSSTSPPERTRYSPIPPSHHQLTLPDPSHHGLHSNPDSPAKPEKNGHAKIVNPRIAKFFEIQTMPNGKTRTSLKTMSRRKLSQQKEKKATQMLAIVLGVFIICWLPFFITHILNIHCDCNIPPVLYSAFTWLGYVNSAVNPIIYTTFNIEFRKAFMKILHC

Row | Structure (SMILES) | brain uptake in combined microSPECT/microCT image (dopamine D2 receptors [1]) | stability (radiochemistry purity after 24 hours) [2] | log P value [3] | Kd (dopamine D2 receptors [4])
1 | CCN1CCC[C@H]1CNC(=O)c1cc(I)cc(OC)c1OC [I-123-Epidepride] | obvious absorption is found in striatum [41], thalamus and midbrain [42] | higher than 90% | 1.76±0.04 | 
2 | CCN1CCC[C@H]1CNC(=O)c1c(OC)ccc(I)c1O [IBZM] |  |  |  | 0.43 nM
